Test results from ChEMBL document CHEMBL1933046, “Synthesis and antibacterial activity of a novel series of acylides active against community acquired respiratory pathogens” (2012).
Converted amounts (≈) assume the structure as drawn.

The compounds below were run on Streptococcus pneumoniae (assay: Antibacterial activity against Streptococcus pneumoniae by NCCLS method).
Assay type: functional

Row | Structure (SMILES) | MIC [µg/mL]
1 | CC[C@H]1OC(=O)[C@H](C)[C@@H](OC(=O)Cc2ccccn2)[C@H](C)[C@@H](O[C@@H]2O[C@H](C)C[C@H](N(C)CC)[C@H]2O)[C@](C)(OC)C[C@@H](C)C(=O)[C@H](C)[C@@H](O)[C@]1(C)O | 0.25 (≈ 0.346 µM)
2 | C=CCN(C)[C@H]1C[C@@H](C)O[C@@H](O[C@@H]2[C@@H](C)[C@H](OC(=O)Cc3cccc([N+](=O)[O-])c3)[C@@H](C)C(=O)O[C@H](CC)[C@@](C)(O)[C@H](O)[C@@H](C)C(=O)[C@H](C)C[C@@]2(C)OC)[C@@H]1O | 0.06 (≈ 0.077 µM)
3 | CC[C@H]1OC(=O)[C@H](C)[C@@H](OC(=O)Cc2ccccn2)[C@H](C)[C@@H](O[C@@H]2O[C@H](C)C[C@H](N(C)CC3CC3)[C@H]2O)[C@](C)(OC)C[C@@H](C)C(=O)[C@H](C)[C@@H](O)[C@]1(C)O | > 16
4 | C=CCN(C)[C@H]1C[C@@H](C)O[C@@H](O[C@@H]2[C@@H](C)[C@H](OC(=O)Cc3ccncc3)[C@@H](C)C(=O)O[C@H](CC)[C@@](C)(O)[C@H](O)[C@@H](C)C(=O)[C@H](C)C[C@@]2(C)OC)[C@@H]1O | 0.5 (≈ 0.68 µM)
5 | C#CCN(C)[C@H]1C[C@@H](C)O[C@@H](O[C@@H]2[C@@H](C)[C@H](OC(=O)Cc3cccc([N+](=O)[O-])c3)[C@@H](C)C(=O)O[C@H](CC)[C@@](C)(O)[C@H](O)[C@@H](C)C(=O)[C@H](C)C[C@@]2(C)OC)[C@@H]1O | 1 (≈ 1.29 µM)
6 | CC[C@H]1OC(=O)[C@H](C)[C@@H](OC(=O)Cc2cccc([N+](=O)[O-])c2)[C@H](C)[C@@H](O[C@@H]2O[C@H](C)C[C@H](N(C)CC)[C@H]2O)[C@](C)(OC)C[C@@H](C)C(=O)[C@H](C)[C@@H](O)[C@]1(C)O | 0.25 (≈ 0.326 µM)
7 | CC[C@H]1OC(=O)[C@H](C)[C@@H](OC(=O)Cc2ccccc2[N+](=O)[O-])[C@H](C)[C@@H](O[C@@H]2O[C@H](C)C[C@H](N(C)CC3CC3)[C@H]2O)[C@](C)(OC)C[C@@H](C)C(=O)[C@H](C)[C@@H](O)[C@]1(C)O | 1 (≈ 1.26 µM)
8 | CC[C@H]1OC(=O)[C@H](C)[C@@H](OC(=O)Cc2ccccn2)[C@H](C)[C@@H](O[C@@H]2O[C@H](C)C[C@H](N(C)C3CC3)[C@H]2O)[C@](C)(OC)C[C@@H](C)C(=O)[C@H](C)[C@@H](O)[C@]1(C)O | > 32
9 | CC[C@H]1OC(=O)[C@H](C)[C@@H](OC(=O)Cc2cccc(F)c2)[C@H](C)[C@@H](O[C@@H]2O[C@H](C)C[C@H](N(C)Cc3ccccc3)[C@H]2O)[C@](C)(OC)C[C@@H](C)C(=O)[C@H](C)[C@@H](O)[C@]1(C)O | 1 (≈ 1.25 µM)
10 | CC[C@H]1OC(=O)[C@H](C)[C@@H](OC(=O)Cc2ccccc2F)[C@H](C)[C@@H](O[C@@H]2O[C@H](C)C[C@H](N(C)CC3CC3)[C@H]2O)[C@](C)(OC)C[C@@H](C)C(=O)[C@H](C)[C@@H](O)[C@]1(C)O | 8 (≈ 10.4 µM)
11 | CC[C@H]1OC(=O)[C@H](C)[C@@H](OC(=O)Cc2ccc(F)cc2)[C@H](C)[C@@H](O[C@@H]2O[C@H](C)C[C@H](N(C)C3CC3)[C@H]2O)[C@](C)(OC)C[C@@H](C)C(=O)[C@H](C)[C@@H](O)[C@]1(C)O | 32 (≈ 42.6 µM)
12 | CC[C@H]1OC(=O)[C@H](C)[C@@H](OC(=O)Cc2cccnc2)[C@H](C)[C@@H](O[C@@H]2O[C@H](C)C[C@H](N(C)Cc3ccccc3)[C@H]2O)[C@](C)(OC)C[C@@H](C)C(=O)[C@H](C)[C@@H](O)[C@]1(C)O | 0.25 (≈ 0.318 µM)
13 | CC[C@H]1OC(=O)[C@H](C)[C@@H](OC(=O)Cc2ccccc2F)[C@H](C)[C@@H](O[C@@H]2O[C@H](C)C[C@H](N(C)CC)[C@H]2O)[C@](C)(OC)C[C@@H](C)C(=O)[C@H](C)[C@@H](O)[C@]1(C)O | 0.25 (≈ 0.338 µM)
14 | C=CCN(C)[C@H]1C[C@@H](C)O[C@@H](O[C@@H]2[C@@H](C)[C@H](OC(=O)Cc3ccccn3)[C@@H](C)C(=O)O[C@H](CC)[C@@](C)(O)[C@H](O)[C@@H](C)C(=O)[C@H](C)C[C@@]2(C)OC)[C@@H]1O | 0.25 (≈ 0.34 µM)
15 | CC[C@H]1OC(=O)[C@H](C)[C@@H](OC(=O)Cc2ccc(F)cc2)[C@H](C)[C@@H](O[C@@H]2O[C@H](C)C[C@H](N(C)Cc3ccccc3)[C@H]2O)[C@](C)(OC)C[C@@H](C)C(=O)[C@H](C)[C@@H](O)[C@]1(C)O | 1 (≈ 1.25 µM)
